From ChEMBL document CHEMBL1135453, “Inhibition of feline immunodeficiency virus (FIV) replication by DNA binding polyamides” (2002)

Experiments:
Assay type in all cases: functional
[1] = tested on: Feline immunodeficiency virus; assay: Tested for the percentage decrease in replication of FIV-34TF10 at a concentration of 0.1 nM
[2] = tested on: Feline immunodeficiency virus; assay: Effect on replication of FIV 34TF10env in chronically infected feline glial cell lines G355-5 at 1 nM conc; RT activity per ug/mL of protein concentration
[3] = tested on: Feline immunodeficiency virus; assay: Effect on replication of FIV 34TF10 in chronically infected feline glial cell lines G355-5 at 0.01 nM conc; RT activity per ug/mL of protein concentration
[4] = tested on: Feline immunodeficiency virus; assay: Effect on replication of FIV 34TF10 in chronically infected feline glial cell lines G355-5 at 0.1 nM conc; RT activity per ug/mL of protein concentration
[5] = tested on: Feline immunodeficiency virus; assay: Effect on replication of FIV 34TF10 in chronically infected feline glial cell lines G355-5 at 0 nM conc; RT activity per ug/mL of protein concentration
[6] = tested on: Feline immunodeficiency virus; assay: Effect on replication of FIV 34TF10 in chronically infected feline glial cell lines G355-5 at 10000 nM conc; RT activity per ug/mL of protein concentration
[7] = tested on: Feline immunodeficiency virus; assay: Effect on replication of FIV 34TF10 in chronically infected feline glial cell lines G355-5 at 1000 nM conc; RT activity per ug/mL of protein concentration
[8] = tested on: Feline immunodeficiency virus; assay: Effect on replication of FIV 34TF10 in chronically infected feline glial cell lines G355-5 at 100 nM conc; RT activity per ug/mL of protein concentration
[9] = tested on: Feline immunodeficiency virus; assay: Effect on replication of FIV 34TF10 in chronically infected feline glial cell lines G355-5 at 10 nM conc; RT activity per ug/mL of protein concentration
[10] = tested on: Feline immunodeficiency virus; assay: Effect on replication of FIV 34TF10 in chronically infected feline glial cell lines G355-5 at 1 nM conc; RT activity per ug/mL of protein concentration
[11] = tested on: Feline immunodeficiency virus; assay: Effect on replication of FIV 34TF10env in chronically infected feline glial cell lines G355-5 at 0.01 nM conc; RT activity per ug/mL of protein concentration
[12] = tested on: Feline immunodeficiency virus; assay: Effect on replication of FIV 34TF10env in chronically infected feline glial cell lines G355-5 at 0.1 nM conc; RT activity per ug/mL of protein concentration
[13] = tested on: Feline immunodeficiency virus; assay: Effect on replication of FIV 34TF10env in chronically infected feline glial cell lines G355-5 at 0 nM conc; RT activity per ug/mL of protein concentration
[14] = tested on: Feline immunodeficiency virus; assay: Effect on replication of FIV 34TF10env in chronically infected feline glial cell lines G355-5 at 10000 nM conc; RT activity per ug/mL of protein concentration
[15] = tested on: Feline immunodeficiency virus; assay: Effect on replication of FIV 34TF10env in chronically infected feline glial cell lines G355-5 at 1000 nM conc; RT activity per ug/mL of protein concentration
[16] = tested on: Feline immunodeficiency virus; assay: Effect on replication of FIV 34TF10env in chronically infected feline glial cell lines G355-5 at 100 nM conc; RT activity per ug/mL of protein concentration
[17] = tested on: Feline immunodeficiency virus; assay: Effect on replication of FIV 34TF10env in chronically infected feline glial cell lines G355-5 at 10 nM conc; RT activity per ug/mL of protein concentration

Row | SMILES | Decrease [1] [%] | Reverse transcriptase activity [2] | Reverse transcriptase activity [3] | Reverse transcriptase activity [4] | Reverse transcriptase activity [5] | Reverse transcriptase activity [6] | Reverse transcriptase activity [7] | Reverse transcriptase activity [8] | Reverse transcriptase activity [9] | Reverse transcriptase activity [10] | Reverse transcriptase activity [11] | Reverse transcriptase activity [12] | Reverse transcriptase activity [13] | Reverse transcriptase activity [14] | Reverse transcriptase activity [15] | Reverse transcriptase activity [16] | Reverse transcriptase activity [17]
1 | CN(C)CCCNC(=O)c1cc(NC(=O)c2cc(NC(=O)c3cc(NC(=O)c4ccccc4C(=O)O)cn3C)cn2C)cn1C | 75 | 1600 | 665 | 390 | 1200 | 950 | 480 | 490 | 475 | 800 | 2000 | 1990 | 1590 | 1800 | 2100 | 1900 | 1700
2 | Cc1nc(N)sc1C(=O)Nc1cn(C)c(C(=O)Nc2cn(C)c(C(=O)NCCCN(C)C)n2)n1 | 75 | 2000 | 675 | 350 | 1025 | 950 | 500 | 550 | 475 | 800 | 2000 | 1500 | 2200 | 2100 | 1700 | 1800 | 1500
